Results reported in PubChem BioAssay (NCI).
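Values below derive from 48-hour exposures of cells grown in 96-well plates, with endpoints linearly interpolated between the two concentrations bracketing the appropriate inhibition level. Definition used: TGI = concentration required for complete inhibition of growth.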

Legend:
Test in all cases: NCI anticancer screen, dose series, 48 h
[1] = test system: ACHN renal
[2] = test system: BT-549 breast
[3] = test system: EKVX NSCLC
[4] = test system: HOP-92 NSCLC
[5] = test system: HS 578T breast
[6] = test system: K-562 leukemia
[7] = test system: KM12 colon
[8] = test system: OVCAR-3 ovarian
[9] = test system: SF-295 CNS
[10] = test system: SF-539 CNS
[11] = test system: T-47D breast
[12] = test system: UO-31 renal

SMILES | TGI [1] [µM] | TGI [2] [µM] | TGI [3] [µM] | TGI [4] [µM] | TGI [5] [µM] | TGI [6] [µM] | TGI [7] [µM] | TGI [8] [µM] | TGI [9] [µM] | TGI [10] [µM] | TGI [11] [µM] | TGI [12] [µM]
NS(=O)(=O)c1nc(S(=O)(=O)O)c2[nH]cnc2n1 | > 100 | > 100 | > 100 | > 100 | > 100 | > 100 | > 100 | > 100 | > 100 | > 100 | > 100 | > 100
O=C(O)CSc1ccccc1C(=O)O | > 100 | > 100 | > 100 | > 100 | > 100 | > 100 | > 100 | > 100 | > 100 | > 100 | > 100 | > 100
CC(=O)O[C@H]1CC[C@@]2(C)C(=CC[C@@H]3[C@@H]2CC[C@]2(C)C(=N/O)/C(=C\c4ccccc4)C[C@@H]32)C1 | > 100 | > 100 | 51.2 | 88.5 | 50.9 | > 100 | 10.6 | 54.7 | 67.1 | 83.3 | > 93.7 | > 59.2
O=[N+]([O-])c1ccc(NN=C2CN3CCN(C2)c2ccccc23)c([N+](=O)[O-])c1 | > 100 | > 100 | > 100 | > 100 | > 100 | > 100 | > 100 | > 100 | > 100 | > 100 | > 100 | > 100
Cc1nc2cc(F)c(F)cc2[nH]c1=O | > 100 | > 100 | > 100 | > 100 | > 100 | > 100 | > 100 | > 100 | > 100 | > 100 | > 100 | > 100
COc1cc2cc(C(=O)N3CC(COS(C)(=O)=O)c4ccc(NC(=O)OCc5ccccc5)cc43)[nH]c2c(OC)c1OC (configuration not stated) | > 100 | > 100 | > 100 | > 100 | > 100 | > 100 | > 100 | > 100 | > 100 | > 100 | > 100 | > 100
O=c1c2c([nH]c3nccn13)CCC2 | > 10 | > 10 | > 10 | > 10 | > 10 | > 10 | > 10 | > 10 | > 10 | > 10 | > 10 | > 10
O=C1COc2cc(N3CCN(c4cccc(C(F)(F)F)c4)CC3)ccc2N1 | > 100 | > 100 | > 100 | > 100 | > 100 | > 100 | > 100 | > 100 | > 100 | > 100 | > 100 | > 100
CC(=O)n1cc(C2CC23N=C(c2ccccc2)OC3=O)c2ccccc21 (configuration not stated) | 38.3 | 30.3 | 51.1 | 52.5 | 68.6 | 77.6 | 48.7 | 53.4 | > 100 | 41.2 | > 100 | 30.9
C=C(C(=O)O[C@H]1C/C(C)=C/CC/C(CO)=C/[C@H]2C(=O)OC(=C)[C@H]12)C(O)CO (some centres not stated) | 24.8 | 30.2 | 36.5 | 31.4 | 57.9 | 14.8 | 42.3 | 22.8 | > 60.8 | 10.4 | 11.8 | 27.6
NNC(=O)Nc1nc2ccc(NN)cc2[nH]1 | > 100 | 84.1 | > 100 | 57.3 | > 100 | 42.1 | 48.7 | > 100 | > 100 | 28.5 | > 100 | > 100
C/C=C(\C)C(=O)OC1CC(OC(C)=O)C2(C(=O)OC)COC3C2C1(C)C1C2(C(=O)OC)OCC1(C3O)C1(O)C3CC(C4(O)C=COC4O3)C1(C)O2 (configuration not stated) | > 100 | > 100 | > 100 | > 100 | > 100 | > 100 | > 100 | > 100 | > 100 | > 100 | > 100 | > 100
C[C@@H]1[C@@H](C)C(c2ccccc2)O[Si]1(C(C)(C)C)C(C)(C)C (some centres not stated) | 31.5 | 57.1 | 33.4 | 38.8 | 42.6 | 63.6 | 30.6 | 30.1 | 30.2 | 30.7 | 37.2 | 31
CC(C)(C)OC(=O)NC12C3C4C1C1C2C3C41NC(=O)OC(C)(C)C (configuration not stated) | > 100 | > 100 | > 100 | > 100 | > 100 | > 100 | 39.3 | > 100 | > 100 | 93.9 | > 100 | > 100
Clc1sc(Cl)c2c1[C@@H](Cl)C[C@@H]2Cl | > 100 | > 100 | > 100 | > 100 | > 100 | > 100 | > 100 | > 100 | > 100 | > 100 | > 100 | > 100
N#Cc1c(-c2ccc(Cl)cc2)cc(-c2ccc(Nc3ccnc4cc(Cl)ccc34)cc2)[nH]c1=O | > 85.4 | 54.2 | > 100 | 61.2 | 62.4 | > 100 | > 100 | > 100 | > 62.1 | > 100 | > 100 | > 100
NCCCN(CCCCN(CCCN)C(=O)OCc1ccccc1)C(=O)OCc1ccccc1 | > 100 | > 100 | > 100 | > 100 | > 100 | > 100 | > 100 | > 100 | > 100 | > 100 | > 100 | > 100
Cn1cccc1-c1ccc(-c2ccc(CO)[se]2)[se]1 | > 100 | > 78.5 | > 100 | > 100 | > 100 | > 100 | 50.5 | > 100 | > 95.8 | > 82.9 | > 83.7 | 96.9

SMILES | TGI [1] [µM] | TGI [2] [µM] | TGI [3] [µM] | TGI [4] [µM] | TGI [5] [µM] | TGI [6] [µM] | TGI [7] [µM] | TGI [8] [µM] | TGI [9] [µM] | TGI [10] [µM] | TGI [11] [µM] | TGI [12] [µM]
O=C(Nc1sccc1S(=O)(=O)c1ccc(Cl)cc1)c1ccc(F)cc1F | > 100 | 46.8 | 43.5 | 42.5 | 80.5 | 38.6 | > 100 | > 100 | 65.3 | 30.5 | > 100 | 47.7
C1=C(c2ccccc2)C(N2CCOCC2)Oc2ccccc21 (configuration not stated) | > 100 | > 100 | > 100 | > 100 | > 100 | > 100 | > 100 | > 100 | > 100 | > 100 | > 100 | > 100
COc1cc2ccc(C(=O)NCCCNC(=O)c3ccc4cc(OC)c(OC)cc4c3)cc2cc1OC | > 100 | > 100 | > 100 | > 100 | > 100 | > 100 | > 100 | > 100 | > 100 | > 100 | > 100 | > 100
Cc1ccc(S(=O)(=O)NC(CCC(=O)NNc2ccccc2)C(=O)NNc2ccccc2)cc1 (configuration not stated) | > 100 | > 100 | > 100 | > 100 | > 100 | > 100 | > 100 | > 100 | > 100 | > 100 | > 100 | > 100
Cc1cc(C)c2c(c1)CC1(Cc3cc(C)c(C)cc3C1=O)C2=O (configuration not stated) | > 100 | > 100 | > 100 | > 100 | > 100 | > 100 | > 100 | > 100 | > 100 | > 100 | > 100 | > 100
C1=NCCNCCNCCN=Cc2ccc(cc2)OCc2cccc(n2)COc2ccc1cc2 | > 100 | > 100 | > 100 | > 100 | > 100 | > 100 | > 100 | > 100 | > 100 | > 100 | > 100 | > 100
C#CC(O)(c1nc2ccccc2s1)c1nc2ccccc2s1 | 83.2 | 57.3 | 57.5 | 38.2 | > 100 | > 100 | > 100 | 40.8 | 76.8 | 36.7 | 88.9 | 29.4
C#C[C@]1(O)CC[C@H]2[C@@H]3CCC4=C/C(=N/NC(=O)c5cccc6c(=O)c7ccccc7[nH]c56)CCC4[C@H]3CC[C@@]21C (some centres not stated) | > 100 | 63.3 | > 100 | > 100 | > 100 | > 100 | > 100 | > 100 | > 100 | > 100 | > 100 | 76.5
COC(=O)[C@@H]1CS(=O)(=O)C(C(C)C)N1C(C)=O (some centres not stated) | > 100 | > 100 | > 100 | > 100 | > 100 | > 100 | > 100 | > 100 | > 100 | > 100 | > 100 | > 100
CC(C)(C)OC(=O)[C@@H]1CCC(=O)N1C1(c2ccccc2)c2ccccc2-c2ccccc21 | > 100 | > 100 | > 100 | > 100 | > 100 | > 100 | > 100 | > 100 | 61.1 | 35.7 | > 100 | > 100
CCOC(=O)C1CC(C(=O)c2ccccc2)N2c3ccccc3-c3ccccc3C12 (configuration not stated) | > 100 | > 100 | > 100 | > 100 | 97.2 | > 100 | > 100 | > 100 | > 100 | > 100 | > 100 | > 100
CSC(=S)Nc1cc(C)cc(C)n1 | > 31.6 | > 100 | > 31.6 | > 31.6 | > 31.6 | > 31.6 | > 31.6 | > 31.6 | > 31.6 | > 100 | > 31.6 | > 31.6
Nc1ccc(-c2nc3ccccc3s2)cc1Cl | > 100 | > 100 | > 100 | > 100 | > 100 | > 100 | > 100 | > 100 | > 100 | > 100 | > 100 | > 100
CCCCc1ccc(Nc2ncc3ncn(COCCO)c3n2)cc1 | > 100 | > 100 | 88.7 | 92.8 | 83.7 | 52.7 | 99.1 | 90.9 | 80.1 | > 100 | > 100 | 59.1
Fc1cccc(F)c1C1SCc2nc3cc(Cl)c(Cl)cc3n21 (configuration not stated) | > 100 | > 100 | > 100 | > 100 | > 100 | > 100 | > 100 | > 100 | > 100 | > 100 | > 100 | > 100
Cn1nc2ccc(Nc3cc(=O)[nH]c4ccc5nn(C)nc5c34)cc2n1 | > 100 | > 100 | > 100 | > 100 | > 100 | > 100 | > 100 | > 100 | > 100 | > 100 | > 100 | > 100
Cc1cccc2c(N)c3cccc(C(=O)NCC[N+](C)(C)Cc4ccc([N+](=O)[O-])s4)c3nc12 | > 49.2 | > 70.5 | 41.5 | 68.8 | 34.6 | 27.9 | > 54.3 | 49.6 | > 100 | 23.9 | > 67.6 | > 74.7
CCOC(=O)/C(C(N)=O)=C(\O)C(=O)/C(Br)=C(\O)c1ccccc1 | 33.3 | 33.7 | 52.8 | 53.7 | 50.1 | 31.2 | 35.3 | 41.4 | > 100 | 36.5 | 54.4 | 39.6
